{"source": "patent US11324720B2", "about": "“Antiproliferative DNA polymerase inhibitor” (NEW YORK MEDICAL COLLEGE, priority 2018, dated 2022)", "key": {"[1]": {"tested_on": "HCC1395 cells", "experiment": "MTT assay with PARP inhibitors with or without zelpolib", "format": "cell-based, human", "conditions": "2.5 μM zelpolib, 48 hrs", "method": "However, there have been minimal clinical benefits for HR-proficient cancers^37-41. Since zelpolib can inhibit HR, we explored the effect of zelpolib in combination with PARP inhibitors on HR-proficient cancer cells. The hypothesis is that zelpolib will lead to an HR-defect through inhibition of Pol δ and render HR-proficient cells sensitive to PARP inhibition. […] The cells were treated with increasing concentrations of PARP inhibitor Niraparib (FIG. 5B) or Rucaparib (FIG. 5C) in the absence or presence of 2.5 μM zelpolib for 48 hrs. The number of cells were then analyzed by MTT assay.\nHuman cancer cells (5×10^3-7.5×10^3) were initially seeded in 96-well plates (Cellstar) containing 0.2 ml media per well. After 24 hrs, these cells were treated with variable concentrations drug combinations for 48-72 hrs. Subsequently, 4,5-dimethylthiazol-2-yl-2,5-diphenyltetrazolium bromide (MTT) (20 μl of 5 mg/ml) was added to each well for 3 hrs. Formazan crystals were then dissolved in 150 μl DMSO and optical density was read at 490 nm^25. All experiments were performed in triplicates. Results were analyzed by GraphPad Prism. Data represent mean value±SEM for each concentration of inhibitor combinations."}, "[2]": {"tested_on": "BxPC-3 cells", "experiment": "DNA fiber fluorography dual labeling (IdU/CldU)", "format": "cell-based, human", "description": "(§1) In our search for Pol δ inhibitors, we focused on the identification of inhibitors that can inhibit Pol δ when it is actively replicating DNA. DNA fiber fluorography with dual labeling technique^24 provides a possibility that we can analyze the effect of zelpolib on ongoing DNA replication at a single molecule level. Both IdU and CldU are halogenated thymidine analogs that can be incorporated into DNA. Subsequent DNA fiber spreading and antibody detection are used to directly visualize the replicated DNA fiber. The incorporation of IdU gives rise to red fibers and CldU produces green fibers with subsequent antibody detection^24. Therefore, in this assay, the cells were first incubated with IdU for 20 minutes in the absence of zelpolib (FIG. 3B) to establish ongoing DNA replication and the basal replication rates of each individual DNA fibers. Subsequently, CldU were added to cell culture either with or without simultaneous addition of zelpolib. DNA replication were allowed for an additional hour. […] In order to be certain that this inhibition was not cell line dependent, we conducted an identical experiment on a triple-negative breast cancer cell line as well. […] The DNA fibers (FIG. 3C) from a single field of view (FIG. 9) were realigned for visual comparison.\n(§2) To analyze the effect of zelpolib, DNA fiber fluorography was used with dual labeling technique as reported. Cells were seeded in 6-well plates (Cellstar) and allowed to attach for 24 hours before pulse labeled with 25 μM IdU for 20 min. Subsequently, cells were washed three times with PBS and pulse labeled with 250 μM of CldU (Sigma) for 60 min in the presence or absence of zelpolib. Cell lysis and fiber spreading were conducted according to Schwab & Niedzwiedz. IdU and CldU were detected by primary mouse anti-BrdU antibody (BD biosciences, 1:25) and rat anti-BrdU antibody (Abcam, 1:200) and secondary fluorescent antibodies Alexa anti-mouse 594 (ThermoFisher scientific, 1:625) and Alexa anti-rat 488 (ThermoFisher scientific, 1:200). DNA fibers were imaged on fluorescence microscope and fiber lengths were measured using Image-J software. Statistics were calculated using GraphPad prism software."}, "[3]": {"tested_on": "HCC1395 cells", "experiment": "DNA fiber fluorography dual labeling (IdU/CldU)", "format": "cell-based, human", "conditions": "all three concentrations, zelpolib added with CldU for 60 min", "description": "as §1, §2"}, "[4]": {"target": "T1, Pol δ (Homo sapiens, UniProt P28340)", "T1 construct": "made in house; host or cells: insect cells (Pol δ); E. coli (PCNA)", "T1 sequence (P28340 whole entry)": "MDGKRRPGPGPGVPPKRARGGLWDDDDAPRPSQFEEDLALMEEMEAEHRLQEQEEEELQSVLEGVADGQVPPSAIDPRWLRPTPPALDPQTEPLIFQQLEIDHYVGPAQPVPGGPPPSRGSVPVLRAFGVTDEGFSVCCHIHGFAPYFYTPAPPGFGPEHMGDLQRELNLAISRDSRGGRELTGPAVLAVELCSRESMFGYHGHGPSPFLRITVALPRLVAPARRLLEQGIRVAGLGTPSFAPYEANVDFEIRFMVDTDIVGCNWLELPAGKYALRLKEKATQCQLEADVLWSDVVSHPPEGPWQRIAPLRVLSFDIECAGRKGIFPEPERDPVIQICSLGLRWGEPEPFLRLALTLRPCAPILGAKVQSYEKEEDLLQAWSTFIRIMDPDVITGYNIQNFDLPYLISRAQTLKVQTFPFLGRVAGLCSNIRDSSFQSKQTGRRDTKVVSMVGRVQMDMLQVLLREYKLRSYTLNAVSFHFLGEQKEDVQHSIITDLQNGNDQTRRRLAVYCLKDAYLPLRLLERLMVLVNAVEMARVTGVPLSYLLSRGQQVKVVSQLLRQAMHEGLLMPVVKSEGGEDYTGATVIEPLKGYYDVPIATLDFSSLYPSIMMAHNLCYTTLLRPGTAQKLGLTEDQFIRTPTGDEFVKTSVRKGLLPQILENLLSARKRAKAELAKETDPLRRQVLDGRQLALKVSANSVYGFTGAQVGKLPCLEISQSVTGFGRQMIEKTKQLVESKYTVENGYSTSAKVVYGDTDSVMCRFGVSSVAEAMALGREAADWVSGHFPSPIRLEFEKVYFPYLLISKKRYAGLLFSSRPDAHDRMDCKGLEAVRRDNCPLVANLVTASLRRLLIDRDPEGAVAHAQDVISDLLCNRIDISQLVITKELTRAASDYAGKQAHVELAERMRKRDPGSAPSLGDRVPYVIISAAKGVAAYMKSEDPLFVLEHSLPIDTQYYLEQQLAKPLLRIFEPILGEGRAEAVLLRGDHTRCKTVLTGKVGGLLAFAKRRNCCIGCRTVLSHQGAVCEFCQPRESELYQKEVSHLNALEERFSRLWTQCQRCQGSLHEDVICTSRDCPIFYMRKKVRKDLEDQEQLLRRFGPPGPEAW", "T1 sequence (P49005 whole entry partner)": "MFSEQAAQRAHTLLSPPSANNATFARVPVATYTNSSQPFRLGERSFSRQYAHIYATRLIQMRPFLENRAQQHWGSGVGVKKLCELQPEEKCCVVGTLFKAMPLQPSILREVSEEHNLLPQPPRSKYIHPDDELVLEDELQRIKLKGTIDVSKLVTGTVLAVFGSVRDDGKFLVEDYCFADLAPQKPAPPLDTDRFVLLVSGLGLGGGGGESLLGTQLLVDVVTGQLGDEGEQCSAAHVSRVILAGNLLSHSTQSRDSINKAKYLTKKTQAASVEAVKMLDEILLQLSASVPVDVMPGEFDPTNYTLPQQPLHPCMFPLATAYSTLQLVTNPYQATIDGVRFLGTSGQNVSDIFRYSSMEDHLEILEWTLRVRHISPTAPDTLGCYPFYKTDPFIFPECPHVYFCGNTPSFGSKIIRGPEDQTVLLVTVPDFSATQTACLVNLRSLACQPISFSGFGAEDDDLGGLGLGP", "T1 sequence (Q15054 whole entry partner)": "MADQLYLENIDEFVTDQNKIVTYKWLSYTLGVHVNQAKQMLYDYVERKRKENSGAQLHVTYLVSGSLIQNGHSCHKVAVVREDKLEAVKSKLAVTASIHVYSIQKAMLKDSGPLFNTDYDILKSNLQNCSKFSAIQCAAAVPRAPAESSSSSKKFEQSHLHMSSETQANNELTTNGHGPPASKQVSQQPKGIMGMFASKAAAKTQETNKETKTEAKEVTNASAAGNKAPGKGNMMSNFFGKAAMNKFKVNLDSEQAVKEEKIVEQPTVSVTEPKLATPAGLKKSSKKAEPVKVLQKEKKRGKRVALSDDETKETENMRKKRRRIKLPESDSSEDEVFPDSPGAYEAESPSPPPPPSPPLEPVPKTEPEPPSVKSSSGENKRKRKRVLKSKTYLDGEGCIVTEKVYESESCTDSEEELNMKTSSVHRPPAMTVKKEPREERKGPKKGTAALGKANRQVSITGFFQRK", "T1 sequence (P12004 whole entry partner)": "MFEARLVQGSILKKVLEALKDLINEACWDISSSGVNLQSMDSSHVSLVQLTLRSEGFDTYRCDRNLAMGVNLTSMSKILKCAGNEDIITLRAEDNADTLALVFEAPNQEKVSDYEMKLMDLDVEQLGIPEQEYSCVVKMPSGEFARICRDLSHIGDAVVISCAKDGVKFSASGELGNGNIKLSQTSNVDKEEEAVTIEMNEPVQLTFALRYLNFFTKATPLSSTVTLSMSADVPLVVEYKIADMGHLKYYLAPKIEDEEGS", "experiment": "single nucleotide primer extension (incorporation) assay", "format": "biochemical", "conditions": "single dNTP present", "method": "In our in silico screening, the active site cavity was created by the removal of dCTP in the original crystal structure. […] Therefore, we assayed the inhibition patterns of 4 individual dNTP molecules in a single nucleotide incorporation assays. In this assay, only one nucleotide is present for the primer extension for the next appropriate base paring to the template.\nBriefly, the standard reaction mixture contained 5 μM dNTP, 5 mM MgCl2, 50 mM Tris-HCl (pH 7.5), 2 mM dithiothreitol, […] BSA, 50 mM NaCl, 20 nM primer/template, 50 nM PCNA, 10 nM Pol δ and variable concentrations of inhibitors. The reactions were initiated by addition of dNTPs and MgCl2. Reaction was allowed to proceed at 25° C. for 2 min before addition of stop buffer (95% formamide/25 mM EDTA). The products were separated on a 20% polyacrylamide gels urea. Products was visualized on phosphorimager and quantitated using Image-J software. For single nucleotide primer extension assay^18, the protocol is identical to primer extension assay except a single dNTP is used."}, "[5]": {"tested_on": "BxPC-3 cells", "experiment": "EdU incorporation by laser scanning cytometry", "format": "cell-based, human", "conditions": "10 and 20 μM; 1 to 2 hours pre-incubation, then EdU pulse"}}}
{"smiles": "COC(=O)c1cc(-c2ccccc2)sc1NC(=S)NNC(=O)CCc1ccc(O)c(O)c1", "note": "[zelpolib]", "values": [{"measurement": "sensitisation of HCC1395 cells to Rucaparib", "setting": "[1]; difference statistically significant up to 25 μM", "result": "behaved similarly to zelpolib and Niraparib combination"}, {"measurement": "sensitisation of HCC1395 cells to Niraparib", "setting": "[1]; differences significant up to 20 μM", "result": "increased the sensitivity of HCC1395 cells to Niraparib across the whole range of concentrations"}, {"measurement": "inhibition of DNA fiber extension", "setting": "[2]; 20 μM, 60 minutes exposure, cell line not stated", "result": "about 40%"}, {"measurement": "inhibition of ongoing cellular DNA replication (green/red fiber length ratio)", "setting": "[2]; BxPC-3, zelpolib added with CldU for 60 min", "result": "concentration dependent inhibition of ongoing cellular DNA replication"}, {"measurement": "cellular uptake time", "setting": "[2]; inferred from fiber inhibition at 20 μM with 60 minutes total exposure", "result": "less than 30 minutes"}, {"measurement": "inhibition of ongoing DNA replication (green/red fiber length ratio)", "setting": "[3]", "result": "significant inhibition of ongoing DNA replication"}, {"measurement": "inhibition of incorporation of individual dNTPs (dATP, dGTP, dCTP, dTTP)", "setting": "[4]", "result": "inhibited the incorporation of all four nucleotides to similar extents in a noncompetitive manner"}, {"measurement": "EdU incorporation versus sham treatment", "setting": "[5]", "result": "significant reduction of EdU incorporation"}]}
